Measured values as given in patent publication US8158803B2, “Heterocyclic antiviral compounds” (Roche Palo Alto LLC, priority 2009, dated 2012).
Where two headings read alike, the source gives them in different places.

Experiments:
[1] = target: T1, HCV polymerase (NS5B570n-Con1) (Hepatitis C virus genotype 1b, UniProt Q9WMX2); test: HCV NS5B RNA polymerase activity assay; assay type: biochemical, HCV Con1 strain
T1 construct: contains a 21 amino acid deletion at the C-terminus relative to the full-length HCV polymerase; 6-histidine (N); made in house; host or cells: E. coli BL21(DE) pLysS, plasmid pET17b
Experimental: The enzymatic activity of HCV polymerase (NS5B570n-Con1) was measured as the incorporation of radiolabeled nucleotide monophosphates into acid insoluble RNA products. Unincorporated radiolabeled substrate was removed by filtration and scintillant was added to the washed and dried filter plate containing radiolabeled RNA product. The amount of RNA product generated by NS5B570-Con1 at the end of the reaction was directly proportional to the amount of light emitted by the scintillant.
The N-terminal 6-histidine tagged HCV polymerase, derived from HCV Con1 strain, genotype 1b (NS5B570n-Con1) contains a 21 amino acid deletion at the C-terminus relative to the full-length HCV polymerase and was purified from E. coli strain BL21(DE) pLysS. The construct, containing the coding sequence of HCV NS5B Con1 (GenBank accession number AJ242654) was inserted into the plasmid construct pET17b, downstream of a T7 promoter expression cassette and transformed into E. coli. A single colony was grown overnight as a starter culture and later used inoculate 10 L of LB media supplemented with 100 μg/mL ampicillin at 37° C. Protein expression was induced by the addition of 0.25 mM isopropyl-β-D-thiogalactopyranoside (IPTG) when optical density at […] of the culture was between 0.6 and 0.8 and cells were harvested after 16 to 18 h at 30° C. NS5B570n-Con1 was purified to homogeneity using a three-step protocol including subsequent column chromatography on Ni-NTA, SP-Sepharose HP and Superdex 75 resins.
Reaction mixtures were assembled in 96-well filter plates (cat #MADVN0B, Millipore Co.) and incubated for 2 h at 30° C. Reactions were stopped by addition of 10% final (v/v) trichloroacetic acid and incubated for 40 min at 4° C. […]
The amount of light emitted from the scintillant was converted to counts per minute (CPM) on a Topcount® plate reader (Perkin-Elmer, Energy Range: Low, Efficiency Mode Normal, Count Time: 1 min, Background Subtract: none, Cross talk reduction: Off).
Data was analyzed in Excel® (Microsoft) and ActivityBase® (Idbs®). […] All data was expressed as a percentage of the positive control. […]

HCV = conditions: cited from earlier work
in vitro = conditions: human
[2] = test system: genotype 1b HCV replicon in Huh7 cell line 2209-23; test: HCV replicon assay (Renilla luciferase reporter); assay type: cell-based; conditions: 2209-23 cells, three days incubation
[3] = test system: HCV replicon cells (2209-23); conditions: read-out: Cytotoxicity CC50; 2209-23 cells, WST-1

Compound: CC(C)(C)c1cc(-c2ccc[nH]c2=O)c(O)c(C2CC2c2ccc(NS(C)(=O)=O)cc2)c1 (centres unmarked) [Compound I-3, N-(4-{2-[5-tert-Butyl-2-hydroxy-3-(2-oxo-1,2-dihydro-pyridin-3-yl)-phenyl]-cyclopropyl}-phenyl)-methanesulfonamide]
- IC50 [1]: 12 nM
- melting point: 148 to 150 °C

Compound: CC(C)(C)c1cc(-c2ccc[nH]c2=O)cc(C2CC2c2ccc(NS(C)(=O)=O)cc2)c1 (centres unmarked) [Compound I-1, N-(4-{2-[3-tert-Butyl-5-(2-oxo-1,2-dihydro-pyridin-3-yl)-phenyl]-cyclopropyl}-phenyl)-methanesulfonamide]
- IC50 [1]: 21 nM
- melting point: 162 to 164 °C

Compound: NC(=O)c1ncn([C@@H]2O[C@H](CO)[C@@H](O)[C@H]2O)n1 [ribavirin, 1-((2R,3R,4S,5R)-3,4-Dihydroxy-5-hydroxymethyl-tetrahydro-furan-2-yl)-1H-[1,2,4]triazole-3-carboxylic acid amide]
- toxicity (HCV; human, in vivo): exhibits significant toxicity and is known to induce anemia
- patients with serum amino transferase levels reduced to normal (HCV; monotherapy): 40%

Compound: COc1c(C2CC2c2ccc(NS(C)(=O)=O)cc2)cc(-c2ccc[nH]c2=O)cc1C(C)(C)C (centres unmarked) [Compound I-2, N-(4-{2-[3-tert-Butyl-2-methoxy-5-(2-oxo-1,2-dihydro-pyridin-3-yl)-phenyl]-cyclopropyl}-phenyl)-methanesulfonamide]
- CC50 (in vitro): 15000 nM
- IC50 ([2]; Hepatitis C virus, Huh-7, 72 h): 109 nM

Compound: N-(6-{2-[3-tert-Butyl-6-hydroxy-2-methoxy-5-(2-oxo-1,2-dihydro-pyridin-3-yl)-phenyl]-cyclopropyl}-pyridin-3-yl)-methanesulfonamide [Compound I-4]
- CC50 [3]: 32800 nM
- IC50 [2]: 78 nM
- IC50 ([1]; NS5B570n-Con1, genotype 1b, read-out: IC50 HCV Polymerase Assay): 8 nM
